Reference: patent US8105798B2, “Cytoplasmic activity of retinoid X receptor and its regulation by ligands and dimerization” (The Burnham Institute, priority 2003, dated 2012)

Legend:
RXRα LBD protein = target: T1, RXRα LBD protein (Homo sapiens, UniProt P19793); test: sensitivity of RXRα protein to chymotrypsin digestion; format: biochemical; conditions: 100 μM sulindac sulfide
T1 construct: made in house; host or cells: E. coli BL21 (pET vector, Novagen)
T1 sequence (P19793 224-462): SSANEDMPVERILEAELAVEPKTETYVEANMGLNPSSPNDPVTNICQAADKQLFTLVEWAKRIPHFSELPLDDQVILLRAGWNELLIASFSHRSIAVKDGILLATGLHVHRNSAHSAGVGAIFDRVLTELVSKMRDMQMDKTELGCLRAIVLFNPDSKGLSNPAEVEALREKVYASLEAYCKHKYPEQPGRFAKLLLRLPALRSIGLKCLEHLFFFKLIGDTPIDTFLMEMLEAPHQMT
Method: (FIG. 12b). LBD protein was incubated in the absence (DMSO) or presence of sulindac sulfide (100.micro.M) and then subjected to digestion by chymotrypsin for 30 min. Briefly, SEQ ID No.: 11 was cloned into the pET vector system available from Novagen and the recombinant vector was transformed into and expressed in BL21 cells. Digested reactions were separated by SDS-PAGE and visualized by Commassie blue staining. 35^S RXR protein was incubated for 30 minutes at room temperature in the presence or absence of 100.micro.M sulindac sulfide. Chymotrypsin was then added to a series of labeled protein reactions at final concentrations of 0, 37.5, 75, 150 and 300.micro.g per ml, and digestion proceeded for 20 minutes.

[1] = test system: CV-1, MGC80-3, HEK293T and HCT116 cells; test: apoptosis determined by DAPI staining; format: cell-based; conditions: 75 μM, 24 hr
Method: To determine the involvement of RXRα in sulindac sulfide-induced apoptosis of cancer cells, its effect on apoptosis of CV-1 cells (available from American Type Cell Culture, Manassas, Va., as accession number CCL-70) in the absence or presence of RXRα transfection was evaluated. FIG. 13a. RXR was cloned into a pGFP.C2 vector (GenBank Accession #: U19281) according to the procedure of Li et al., Science 289, 1159-1164 (2000). CV-1 cells were transfected with or without RXRα prior to treatment with sulindac sulfide (75.micro.M) for 24 hr. […] Louis, Mo., as catalogue number D9542), and the presence of nuclear fragmentation and/or chromatin condensation is an indicator of apoptosis. […] The requirement of RXRαwas also examined using RXRα siRNA SEQ ID No.: 12 approach. MGC80-3 cells, HEK293T (ATCC, accession number CCL-1573) and HCT116 (ATCC, accession number CCL-247) cell lines were transfected with RXRα siRNA or control siRNA using oligofectamine (from Invitrogen, Corp). Cell samples from each cell line were lysed and the cell extracts were prepared by immunoblotting to determine RXRα expression. Cells transfected with RXR.alpha siRNA or control siRNA were treated with sulindac sulfide (75.micro.M) for 24 hr, and apoptosis was determined by DAPI staining.

RXRα/IKK interaction = target: T2, RXRα/IKK interaction (Homo sapiens, UniProt P19793); test: co-immunoprecipitation assay of RXRα with IKK; format: cell-based; conditions: 6 hr
T2 construct: expressed in transfected cells; host or cells: HEK293T, pcDNA3 expression vectors
Description: IKK is composed of three subunits: IKKα and IKKβ, the catalytic subunits, and IKKγ, a regulatory subunit. IKK activation is required for NF-kB activation through its phosphorylation and degradation of IkB in response to proinflammatory stimuli. In addition, IKK also regulates cellular processes in a NF-kB-independent manner. We examined whether sulindac sulfide-induced cytoplasmic RXRα could interact with IKK. The indicated expression vector (pcDNA3 from Invitrogen, Corp) was transfected into HEK293T cells alone or together. After transfection, cells were treated with sulindac sulfide (75.micro.M) for 6 hr, and the interaction of RXRα and IKKβ was analyzed by co-immunoprecipitation assay. […] (FIG. 17a). The interaction was also illustrated by their cytoplasmic co-localization in cells treated with sulindac sulfide. (FIG. 17b). […] In this example, H460 cells were treated with or without sulindac sulfide (75.micro.M) for 6 hr, and cells were stained for RXRα and IKKβ (FIG. 17c). […] HA-IKKγ and Flag-RXRα expression vectors were transfected into HEK293T cells alone or together. After transfection, cells were treated with a new retinoid (BI419 (10^-6 M), 15d-PGJ2 (5.micro.M), or sulindac sulfide (75.micro.M) for 6 hr. The interaction of RXRα and IKKγ was studied by co-immunoprecipitation assay.

T2 sequence (P19793 whole entry): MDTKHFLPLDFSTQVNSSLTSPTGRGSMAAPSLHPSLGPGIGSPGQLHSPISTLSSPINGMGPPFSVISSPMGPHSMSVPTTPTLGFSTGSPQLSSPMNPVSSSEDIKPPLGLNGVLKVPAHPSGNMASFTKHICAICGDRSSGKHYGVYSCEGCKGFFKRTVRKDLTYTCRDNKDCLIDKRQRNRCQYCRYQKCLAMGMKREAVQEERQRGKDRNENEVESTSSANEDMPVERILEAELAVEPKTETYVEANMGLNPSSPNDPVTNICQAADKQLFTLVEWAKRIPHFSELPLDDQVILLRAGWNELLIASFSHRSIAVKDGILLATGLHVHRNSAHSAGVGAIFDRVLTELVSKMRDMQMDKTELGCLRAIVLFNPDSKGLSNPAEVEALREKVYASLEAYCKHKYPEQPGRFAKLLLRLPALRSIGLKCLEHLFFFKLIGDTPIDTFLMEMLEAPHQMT
T2 sequence (Q9Y6K9 whole entry partner): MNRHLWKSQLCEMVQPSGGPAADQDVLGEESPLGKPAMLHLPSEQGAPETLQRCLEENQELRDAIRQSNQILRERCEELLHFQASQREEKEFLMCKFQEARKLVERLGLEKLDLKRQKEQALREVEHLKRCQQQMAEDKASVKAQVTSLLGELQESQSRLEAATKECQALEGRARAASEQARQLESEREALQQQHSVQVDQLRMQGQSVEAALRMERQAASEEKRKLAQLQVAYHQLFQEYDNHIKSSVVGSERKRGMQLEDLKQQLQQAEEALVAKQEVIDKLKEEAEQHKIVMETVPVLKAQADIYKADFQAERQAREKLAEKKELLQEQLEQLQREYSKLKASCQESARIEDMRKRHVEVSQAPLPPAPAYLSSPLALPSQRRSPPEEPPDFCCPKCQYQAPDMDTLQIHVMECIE
T2 sequence (O14920 whole entry partner): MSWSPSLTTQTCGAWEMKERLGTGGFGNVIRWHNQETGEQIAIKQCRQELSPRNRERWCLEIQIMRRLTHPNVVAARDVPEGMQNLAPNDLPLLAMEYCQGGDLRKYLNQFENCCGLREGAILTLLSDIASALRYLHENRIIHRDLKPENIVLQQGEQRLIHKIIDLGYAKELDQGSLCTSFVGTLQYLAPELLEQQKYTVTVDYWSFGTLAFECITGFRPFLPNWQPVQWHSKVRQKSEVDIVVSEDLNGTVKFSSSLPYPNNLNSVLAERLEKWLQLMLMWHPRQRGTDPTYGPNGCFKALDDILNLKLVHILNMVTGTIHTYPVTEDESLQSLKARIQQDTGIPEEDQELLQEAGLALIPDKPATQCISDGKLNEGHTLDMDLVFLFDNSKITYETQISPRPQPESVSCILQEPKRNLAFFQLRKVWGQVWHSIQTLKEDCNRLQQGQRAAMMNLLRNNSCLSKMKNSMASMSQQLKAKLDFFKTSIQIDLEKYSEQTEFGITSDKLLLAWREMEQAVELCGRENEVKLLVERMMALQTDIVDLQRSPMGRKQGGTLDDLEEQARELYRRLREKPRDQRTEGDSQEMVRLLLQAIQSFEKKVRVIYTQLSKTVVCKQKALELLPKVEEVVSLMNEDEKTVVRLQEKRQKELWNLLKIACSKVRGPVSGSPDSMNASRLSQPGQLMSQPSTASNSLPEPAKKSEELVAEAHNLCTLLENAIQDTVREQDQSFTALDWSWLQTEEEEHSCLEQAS

Q: With CSc1ccc(/C=C2/C(C)=C(CC(=O)O)c3cc(F)ccc32)cc1 [sulindac sulfide] as the compound, how does the “sensitivity of RXRα protein to chymotrypsin” value (RXRα LBD protein) read?
A: The value was “modulation of sensitivity of RXRα protein to chymotrypsin”.

Q: And the “apoptosis, cells transfected with RXRα” value ([1]; CV-1 cells, DAPI staining)?
A: Its value is “extensive apoptosis”.

Q: And the “apoptosis in cells transfected with RXRα siRNA versus control siRNA” value ([1]; MGC80-3, HEK293T and HCT116 cells)?
A: The value was “significant reduction of apoptosis”.

Q: And the “interaction of RXRα with IKKγ” value (RXRα/IKK interaction; HEK293T cells, HA-IKKγ and Flag-RXRα, BI419 10^-6 M, 15d-PGJ2 5 μM, sulindac sulfide 75 μM)?
A: The value was “further promoted”.

Q: And the “interaction between RXRα and IKKβ” value (RXRα/IKK interaction; transfected HEK293T cells, 75 μM)?
A: The value was “extensive interaction”.
